Measurements reported in ChEMBL document CHEMBL4507282, “Data for DCP probe BI-1950” (2021).

What was measured:
[1] = molecular target: 5-hydroxytryptamine receptor 1D (Homo sapiens) (UniProt P28221); details: Compound concentration 10.0 uM
[2] = molecular target: BDNF/NT-3 growth factors receptor (Homo sapiens) (UniProt Q16620); details: Compound concentration 1000.0 nM
[3] = molecular target: Activin receptor type-1B (Homo sapiens) (UniProt P36896); details: Compound concentration 1000.0 nM
[4] = molecular target: Serine/threonine-protein kinase 32C (Homo sapiens) (UniProt Q86UX6); details: Compound concentration 1000.0 nM
[5] = molecular target: Dual specificity mitogen-activated protein kinase kinase 1 (Homo sapiens) (UniProt Q02750); details: Compound concentration 1000.0 nM
[6] = molecular target: Serine/threonine-protein kinase PLK2 (Homo sapiens) (UniProt Q9NYY3); details: Compound concentration 1000.0 nM
[7] = molecular target: Kappa-type opioid receptor (Homo sapiens) (UniProt P41145); details: Compound concentration 10.0 uM
[8] = molecular target: Cyclin-dependent kinase 15 (Homo sapiens) (UniProt Q96Q40); details: Compound concentration 1000.0 nM
[9] = molecular target: MAP/microtubule affinity-regulating kinase 3 (Homo sapiens) (UniProt P27448); details: Compound concentration 1000.0 nM
[10] = molecular target: Phosphatidylinositol 3-kinase C2 domain-containing subunit gamma (Homo sapiens) (UniProt O75747); details: Compound concentration 1000.0 nM
[11] = molecular target: Atypical kinase COQ8B, mitochondrial (Homo sapiens) (UniProt Q96D53); details: Compound concentration 1000.0 nM
[12] = molecular target: Muscle, skeletal receptor tyrosine-protein kinase (Homo sapiens) (UniProt O15146); details: Compound concentration 1000.0 nM
[13] = molecular target: Dual specificity mitogen-activated protein kinase kinase 6 (Homo sapiens) (UniProt P52564); details: Compound concentration 1000.0 nM
[14] = molecular target: Serine/threonine-protein kinase OSR1 (Homo sapiens) (UniProt O95747); details: Compound concentration 1000.0 nM
[15] = test system: Tyrosine-protein kinase ABL1 (Homo sapiens), P00519 [M351T]; details: Compound concentration 1000.0 nM
[16] = molecular target: Mitogen-activated protein kinase kinase kinase 2 (Homo sapiens) (UniProt Q9Y2U5); details: Compound concentration 1000.0 nM
[17] = molecular target: Non-receptor tyrosine-protein kinase TNK1 (Homo sapiens) (UniProt Q13470); details: Compound concentration 1000.0 nM
[18] = molecular target: Serine/threonine-protein kinase PAK 3 (Homo sapiens) (UniProt O75914); details: Compound concentration 1000.0 nM
[19] = molecular target: cGMP-dependent protein kinase 1 (Homo sapiens) (UniProt Q13976); details: Compound concentration 1000.0 nM
[20] = test system: Serine/threonine-protein kinase B-raf (Homo sapiens), P15056 [V600E]; details: Compound concentration 1000.0 nM
[21] = molecular target: Dual specificity protein kinase CLK2 (Homo sapiens) (UniProt P49760); details: Compound concentration 1000.0 nM
[22] = molecular target: Myosin light chain kinase, smooth muscle (Homo sapiens) (UniProt Q15746); details: Compound concentration 1000.0 nM
[23] = molecular target: Rho-associated protein kinase 2 (Homo sapiens) (UniProt O75116); details: Compound concentration 1000.0 nM
[24] = molecular target: G protein-coupled receptor kinase 3 (Homo sapiens) (UniProt P35626); details: Compound concentration 1000.0 nM
[25] = molecular target: Calcium-dependent protein kinase 1 (Plasmodium falciparum) (UniProt P62344); details: Compound concentration 1000.0 nM
[26] = molecular target: Serine/threonine-protein kinase Nek4 (Homo sapiens) (UniProt P51957); details: Compound concentration 1000.0 nM
[27] = molecular target: Mitogen-activated protein kinase 1 (Homo sapiens) (UniProt P28482); details: Compound concentration 1000.0 nM
[28] = molecular target: Serine/threonine-protein kinase LATS2 (Homo sapiens) (UniProt Q9NRM7); details: Compound concentration 1000.0 nM
[29] = test system: Epidermal growth factor receptor (Homo sapiens), P00533 [T790M]; details: Compound concentration 1000.0 nM
[30] = test system: Phosphatidylinositol 4,5-bisphosphate 3-kinase catalytic subunit alpha isoform (Homo sapiens), P42336 [E545A]; details: Compound concentration 1000.0 nM
[31] = molecular target: Peripheral plasma membrane protein CASK (Homo sapiens) (UniProt O14936); details: Compound concentration 1000.0 nM
[32] = molecular target: Ephrin type-A receptor 1 (Homo sapiens) (UniProt P21709); details: Compound concentration 1000.0 nM
[33] = molecular target: Ephrin type-B receptor 4 (Homo sapiens) (UniProt P54760); details: Compound concentration 1000.0 nM
[34] = molecular target: 5-hydroxytryptamine receptor 7 (Homo sapiens) (UniProt P34969); details: Compound concentration 10.0 uM
[35] = test system: Epidermal growth factor receptor (Homo sapiens), P00533 [UNDEFINED MUTATION]; details: Compound concentration 1000.0 nM
[36] = molecular target: Mitogen-activated protein kinase kinase kinase 5 (Homo sapiens) (UniProt Q99683); details: Compound concentration 1000.0 nM
[37] = molecular target: Casein kinase II subunit alpha' (Homo sapiens) (UniProt P19784); details: Compound concentration 1000.0 nM
[38] = molecular target: Death-associated protein kinase 3 (Homo sapiens) (UniProt O43293); details: Compound concentration 1000.0 nM
[39] = molecular target: Serine/threonine-protein kinase PknB (Mycobacterium tuberculosis) (UniProt P9WI81); details: Compound concentration 1000.0 nM
[40] = molecular target: Cyclin-dependent kinase 9 (Homo sapiens) (UniProt P50750); details: Compound concentration 1000.0 nM
[41] = test system: Mast/stem cell growth factor receptor Kit (Homo sapiens), P10721 [D816V]; details: Compound concentration 1000.0 nM
[42] = molecular target: Phosphatidylinositol 5-phosphate 4-kinase type-2 gamma (Homo sapiens) (UniProt Q8TBX8); details: Compound concentration 1000.0 nM
[43] = molecular target: Dual specificity tyrosine-phosphorylation-regulated kinase 1B (Homo sapiens) (UniProt Q9Y463); details: Compound concentration 1000.0 nM
[44] = test system: Hepatocyte growth factor receptor (Homo sapiens), P08581 [Y1235D]; details: Compound concentration 1000.0 nM
[45] = molecular target: Epidermal growth factor receptor (Homo sapiens) (UniProt P00533); details: Compound concentration 1000.0 nM

Sequence of Serine/threonine-protein kinase PAK 3 (Homo sapiens) (O75914 whole entry, looked up): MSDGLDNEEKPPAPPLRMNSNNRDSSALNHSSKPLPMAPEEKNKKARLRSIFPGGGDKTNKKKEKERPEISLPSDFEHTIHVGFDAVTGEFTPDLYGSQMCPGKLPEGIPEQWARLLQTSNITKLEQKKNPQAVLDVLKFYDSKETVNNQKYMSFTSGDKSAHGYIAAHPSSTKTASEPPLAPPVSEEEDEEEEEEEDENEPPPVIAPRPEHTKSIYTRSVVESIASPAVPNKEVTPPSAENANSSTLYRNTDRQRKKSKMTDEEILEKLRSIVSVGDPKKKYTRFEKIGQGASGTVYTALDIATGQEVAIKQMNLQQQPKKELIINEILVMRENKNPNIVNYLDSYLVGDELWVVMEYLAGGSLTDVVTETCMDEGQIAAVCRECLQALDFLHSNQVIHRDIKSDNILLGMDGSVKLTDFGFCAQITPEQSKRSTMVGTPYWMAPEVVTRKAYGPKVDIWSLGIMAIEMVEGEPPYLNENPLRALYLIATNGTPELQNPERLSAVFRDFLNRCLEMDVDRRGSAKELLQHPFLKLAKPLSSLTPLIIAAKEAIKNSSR
Sequence of Non-receptor tyrosine-protein kinase TNK1 (Homo sapiens) (Q13470 whole entry): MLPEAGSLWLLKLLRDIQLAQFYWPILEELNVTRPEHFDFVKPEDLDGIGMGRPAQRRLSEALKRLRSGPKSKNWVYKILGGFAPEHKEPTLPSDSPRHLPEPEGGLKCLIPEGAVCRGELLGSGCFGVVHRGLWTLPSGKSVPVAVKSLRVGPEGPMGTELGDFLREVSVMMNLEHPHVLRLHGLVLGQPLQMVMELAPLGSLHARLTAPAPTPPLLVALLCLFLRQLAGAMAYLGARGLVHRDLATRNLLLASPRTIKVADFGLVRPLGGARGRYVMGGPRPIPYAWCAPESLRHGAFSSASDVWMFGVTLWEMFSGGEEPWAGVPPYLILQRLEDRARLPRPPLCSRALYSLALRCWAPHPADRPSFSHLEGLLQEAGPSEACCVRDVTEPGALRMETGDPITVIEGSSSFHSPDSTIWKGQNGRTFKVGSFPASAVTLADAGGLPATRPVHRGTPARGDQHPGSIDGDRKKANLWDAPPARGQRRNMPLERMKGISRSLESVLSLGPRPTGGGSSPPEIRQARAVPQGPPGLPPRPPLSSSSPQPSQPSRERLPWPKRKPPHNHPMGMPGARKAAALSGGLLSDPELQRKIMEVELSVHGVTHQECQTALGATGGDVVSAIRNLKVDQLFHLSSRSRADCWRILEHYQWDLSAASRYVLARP
Sequence of 5-hydroxytryptamine receptor 1D (Homo sapiens) (P28221 whole entry): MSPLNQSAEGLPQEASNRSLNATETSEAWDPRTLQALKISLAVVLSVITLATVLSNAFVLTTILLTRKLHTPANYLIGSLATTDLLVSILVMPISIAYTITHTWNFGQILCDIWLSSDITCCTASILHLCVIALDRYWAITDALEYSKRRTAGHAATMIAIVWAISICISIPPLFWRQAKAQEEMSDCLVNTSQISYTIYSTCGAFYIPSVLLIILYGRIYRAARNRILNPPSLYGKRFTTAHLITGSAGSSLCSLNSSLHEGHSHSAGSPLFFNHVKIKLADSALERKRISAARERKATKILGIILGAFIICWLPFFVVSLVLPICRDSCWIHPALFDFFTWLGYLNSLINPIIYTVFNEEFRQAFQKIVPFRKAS
Sequence of Peripheral plasma membrane protein CASK (Homo sapiens) (O14936 whole entry): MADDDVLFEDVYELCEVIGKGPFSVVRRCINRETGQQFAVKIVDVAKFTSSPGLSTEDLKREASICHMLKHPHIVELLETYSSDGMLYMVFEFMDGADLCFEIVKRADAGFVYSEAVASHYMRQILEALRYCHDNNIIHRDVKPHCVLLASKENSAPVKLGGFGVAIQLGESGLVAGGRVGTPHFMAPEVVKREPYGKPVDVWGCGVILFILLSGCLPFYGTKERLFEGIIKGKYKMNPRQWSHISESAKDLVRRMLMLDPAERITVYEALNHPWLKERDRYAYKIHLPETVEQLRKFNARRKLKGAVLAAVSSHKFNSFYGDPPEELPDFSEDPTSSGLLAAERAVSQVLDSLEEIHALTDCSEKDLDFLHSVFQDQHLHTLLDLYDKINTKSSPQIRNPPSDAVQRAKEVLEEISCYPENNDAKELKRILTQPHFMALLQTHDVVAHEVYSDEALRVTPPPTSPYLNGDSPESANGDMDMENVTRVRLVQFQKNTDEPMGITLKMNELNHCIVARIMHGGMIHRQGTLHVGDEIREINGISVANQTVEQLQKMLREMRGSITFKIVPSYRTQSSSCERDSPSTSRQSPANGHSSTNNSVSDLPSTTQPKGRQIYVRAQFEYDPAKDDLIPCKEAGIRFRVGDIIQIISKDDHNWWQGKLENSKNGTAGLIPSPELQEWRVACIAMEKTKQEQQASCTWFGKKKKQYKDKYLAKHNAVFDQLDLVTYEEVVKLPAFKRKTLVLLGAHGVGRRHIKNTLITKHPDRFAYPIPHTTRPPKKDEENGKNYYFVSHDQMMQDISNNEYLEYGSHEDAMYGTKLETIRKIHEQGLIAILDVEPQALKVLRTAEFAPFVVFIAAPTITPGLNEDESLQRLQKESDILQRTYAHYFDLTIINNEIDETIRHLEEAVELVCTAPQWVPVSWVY
Sequence of Death-associated protein kinase 3 (Homo sapiens) (O43293 whole entry, looked up): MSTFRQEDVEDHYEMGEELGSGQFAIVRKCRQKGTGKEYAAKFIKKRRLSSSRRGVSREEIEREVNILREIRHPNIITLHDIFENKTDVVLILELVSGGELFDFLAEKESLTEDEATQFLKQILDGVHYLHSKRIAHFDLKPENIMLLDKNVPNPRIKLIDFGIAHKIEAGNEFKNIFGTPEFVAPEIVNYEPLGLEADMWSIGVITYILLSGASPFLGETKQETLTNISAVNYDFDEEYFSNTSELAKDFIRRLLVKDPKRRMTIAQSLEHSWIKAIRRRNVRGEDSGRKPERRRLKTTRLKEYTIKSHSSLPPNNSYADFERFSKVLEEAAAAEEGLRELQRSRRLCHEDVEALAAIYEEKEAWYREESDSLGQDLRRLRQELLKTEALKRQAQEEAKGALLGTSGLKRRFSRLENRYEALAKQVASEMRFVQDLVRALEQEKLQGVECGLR
Sequence of BDNF/NT-3 growth factors receptor (Homo sapiens) (Q16620 32-822 limits assumed): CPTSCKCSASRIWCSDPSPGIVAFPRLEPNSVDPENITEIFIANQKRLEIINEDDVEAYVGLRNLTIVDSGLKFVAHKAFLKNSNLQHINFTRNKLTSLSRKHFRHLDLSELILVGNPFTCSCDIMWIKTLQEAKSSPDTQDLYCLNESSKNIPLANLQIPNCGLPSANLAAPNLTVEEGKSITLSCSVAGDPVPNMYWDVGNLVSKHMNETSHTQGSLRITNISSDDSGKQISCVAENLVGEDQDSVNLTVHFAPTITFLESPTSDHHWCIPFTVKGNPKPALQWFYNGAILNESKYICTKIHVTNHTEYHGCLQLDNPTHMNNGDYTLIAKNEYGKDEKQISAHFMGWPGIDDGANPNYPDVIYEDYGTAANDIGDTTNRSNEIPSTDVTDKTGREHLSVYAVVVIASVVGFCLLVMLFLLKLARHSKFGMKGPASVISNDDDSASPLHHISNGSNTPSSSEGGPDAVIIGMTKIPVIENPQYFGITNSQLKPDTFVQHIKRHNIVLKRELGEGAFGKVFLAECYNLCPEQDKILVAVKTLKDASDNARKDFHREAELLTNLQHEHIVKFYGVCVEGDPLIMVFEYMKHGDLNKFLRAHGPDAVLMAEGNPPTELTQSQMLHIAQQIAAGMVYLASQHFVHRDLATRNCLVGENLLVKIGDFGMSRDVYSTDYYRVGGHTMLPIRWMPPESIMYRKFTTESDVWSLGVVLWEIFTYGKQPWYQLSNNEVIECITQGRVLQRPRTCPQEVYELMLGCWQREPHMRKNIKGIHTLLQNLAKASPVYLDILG
Sequence of Mitogen-activated protein kinase 1 (Homo sapiens) (P28482 whole entry): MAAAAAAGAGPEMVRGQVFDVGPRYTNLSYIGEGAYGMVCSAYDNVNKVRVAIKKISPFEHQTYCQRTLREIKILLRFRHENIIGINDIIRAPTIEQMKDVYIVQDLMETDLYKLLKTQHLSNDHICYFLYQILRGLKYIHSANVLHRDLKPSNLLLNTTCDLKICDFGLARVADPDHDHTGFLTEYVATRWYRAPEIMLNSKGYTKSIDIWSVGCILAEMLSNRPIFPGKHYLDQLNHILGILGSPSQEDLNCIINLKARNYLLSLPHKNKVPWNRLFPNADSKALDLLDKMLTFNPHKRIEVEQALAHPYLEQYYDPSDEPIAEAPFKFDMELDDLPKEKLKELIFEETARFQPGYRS
Sequence of Serine/threonine-protein kinase B-raf (Homo sapiens), P15056 [V600E] (P15056 whole entry V600E): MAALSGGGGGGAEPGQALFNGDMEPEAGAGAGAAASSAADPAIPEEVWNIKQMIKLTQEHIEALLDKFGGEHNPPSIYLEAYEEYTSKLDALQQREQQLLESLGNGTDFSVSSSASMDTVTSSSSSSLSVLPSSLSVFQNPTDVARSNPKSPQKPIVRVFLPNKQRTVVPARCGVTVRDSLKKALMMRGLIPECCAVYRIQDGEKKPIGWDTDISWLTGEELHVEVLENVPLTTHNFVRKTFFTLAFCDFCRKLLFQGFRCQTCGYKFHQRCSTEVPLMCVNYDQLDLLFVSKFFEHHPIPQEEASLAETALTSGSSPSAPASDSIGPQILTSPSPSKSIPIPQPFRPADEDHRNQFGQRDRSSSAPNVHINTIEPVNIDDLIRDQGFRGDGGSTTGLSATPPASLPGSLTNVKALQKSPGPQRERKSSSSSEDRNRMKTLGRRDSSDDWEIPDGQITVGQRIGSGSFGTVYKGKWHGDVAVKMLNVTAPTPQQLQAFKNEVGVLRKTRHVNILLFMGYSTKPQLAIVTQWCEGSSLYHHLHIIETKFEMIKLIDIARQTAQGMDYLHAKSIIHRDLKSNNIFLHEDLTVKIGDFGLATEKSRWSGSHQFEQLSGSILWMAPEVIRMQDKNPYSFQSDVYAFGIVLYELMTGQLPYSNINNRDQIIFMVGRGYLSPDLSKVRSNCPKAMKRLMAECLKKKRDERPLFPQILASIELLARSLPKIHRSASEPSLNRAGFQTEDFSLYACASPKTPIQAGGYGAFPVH

## C[C@H](NC(=O)c1cnc2n1[C@](C)(Cc1ccc(C#N)cc1)C(=O)N2c1cc(Cl)c(F)c(Cl)c1)C(=O)NC1(c2ccccn2)CC1 [BI 1950]
[1]
  inhibition: 12%
[2]
  residual activity: 100%
[3]
  residual activity: 99%
[4]
  residual activity: 100%
[5]
  residual activity: 92%
[6]
  residual activity: 75%
[7]
  inhibition: 9.67%
[8]
  residual activity: 100%
[9]
  residual activity: 92%
[10]
  residual activity: 100%
[11]
  residual activity: 100%
[12]
  residual activity: 100%
[13]
  residual activity: 80%
[14]
  residual activity: 94%
[15]
  residual activity: 100%
[16]
  residual activity: 100%
[17]
  residual activity: 88%
[18]
  residual activity: 100%
[19]
  residual activity: 62%
[20]
  residual activity: 100%
[21]
  residual activity: 97%
[22]
  residual activity: 100%
[23]
  residual activity: 100%
[24]
  residual activity: 100%
[25]
  residual activity: 100%
[26]
  residual activity: 100%
[27]
  residual activity: 100%
[28]
  residual activity: 100%
[29]
  residual activity: 95%
[30]
  residual activity: 100%
[31]
  residual activity: 100%
[32]
  residual activity: 100%
[33]
  residual activity: 100%
[34]
  inhibition: -4.31%
[35]
  residual activity: 100%
[36]
  residual activity: 92%
[37]
  residual activity: 99%
[38]
  residual activity: 97%
[39]
  residual activity: 100%
[40]
  residual activity: 100%
[41]
  residual activity: 100%
[42]
  residual activity: 100%
[43]
  residual activity: 100%
[44]
  residual activity: 100%
[45]
  residual activity: 100%

## C[C@@]1(Cc2ccc(C#N)cc2)C(=O)N(c2cc(Cl)cc(Cl)c2)c2ncc(C(=O)NC3(c4nc(C5CCC5)no4)CC3)n21 [BI 9446]
[1]
  inhibition: 22.4%
[2]
  residual activity: 100%
[3]
  residual activity: 100%
[4]
  residual activity: 99%
[5]
  residual activity: 97%
[6]
  residual activity: 98%
[7]
  inhibition: 12.6%
[8]
  residual activity: 97%
[9]
  residual activity: 100%
[10]
  residual activity: 100%
[11]
  residual activity: 100%
[12]
  residual activity: 100%
[13]
  residual activity: 80%
[14]
  residual activity: 84%
[15]
  residual activity: 100%
[16]
  residual activity: 100%
[17]
  residual activity: 93%
[18]
  residual activity: 100%
[19]
  residual activity: 100%
[20]
  residual activity: 100%
[21]
  residual activity: 100%
[22]
  residual activity: 100%
[23]
  residual activity: 100%
[24]
  residual activity: 100%
[25]
  residual activity: 100%
[26]
  residual activity: 12%
[27]
  residual activity: 100%
[28]
  residual activity: 92%
[29]
  residual activity: 86%
[30]
  residual activity: 100%
[31]
  residual activity: 100%
[32]
  residual activity: 100%
[33]
  residual activity: 100%
[34]
  inhibition: 4.18%
[35]
  residual activity: 100%
[36]
  residual activity: 100%
[37]
  residual activity: 100%
[38]
  residual activity: 94%
[39]
  residual activity: 96%
[40]
  residual activity: 100%
[41]
  residual activity: 100%
[42]
  residual activity: 100%
[43]
  residual activity: 80%
[44]
  residual activity: 100%
[45]
  residual activity: 100%
